“And” between values parts separate entries of the source, which are not always exact repeats. Identical values can stand only once. Like-named read-outs stand apart in the source and are kept apart here.
Key:
[1] = test system: adrenaline-induced local sweating; test: OPT-test of sweat response after intradermal adrenaline, epidermal application of local anesthetic emulsions on the forearm; type: in vivo, volunteers; settings: for sweat response, induced by intracutaneous administration of adrenaline: 12 volunteers, epidermal application; for number of black-coloured sweat pores (OPT-test), M1-10: mean of patients 1-10; for number of black-coloured sweat pores (OPT-test), M1-12: mean of patients 1-12
Description: (§1) The anti perspiration effect of the present invention was determined in an experimental investigation of dermal analgesia and influence upon adrenaline-induced local sweating by epidermal application of different local anesthetic formulations.
(§2) 12 healthy medical students took part in the study.
(§3) Pre-formed pads, consisting of cellulose fibres, 2 times 2 centimetres, were soaked by a standardized procedure in either an emulsion containing 5% lidocaine base + 5% prilocaine base, an emulsifying agent and water, 10% lidocaine base in the same vehicle, 10% prilocaine base in the same vehicle, or a placebo emulsion containing the emulsifying agent and water only. On one forearm of the volunteer the four different emulsions were applied under occlusive dressings consisting of an impervious tape, while on the other arm the four emulsions were applied under a non-occlusive dressing, using surgical tape (3M). A certain distance between the application areas was chosen in order to avoid any risk of interference between them.
(§4) On the arms of the volunteers 11 and 12 the emulsions were applied directly to the skin, with no cellulose pads, but with occlusive and non-occlusive dressings applied as in the other volunteers.
(§5) The application time for the pads was 60 minutes.
(§6) Immediately after removal of the pads, the square areas under the two types of dressing were marked at the edges. A line was also marked within each applied area dividing them into two identical triangles. One of these surfaces were then used by pin-prick experiments, the other for studying the sweat response.
(§7) Just under the apex of each test area triangle an intradermal wheal 0.1 ml adrenaline 1:10 000 was injected. Pain on injection was noted. The test area was then swabbed with OPT (5% orthophthaldialdehyde in xylol). After drying the OPT-applied area a plastic ring with adhesive on the back side was placed over the visible vasoconstricted area caused by the adrenaline effect, within the test triangle previously covered by the test compositions. The number of black-coloured sweat pores within the standardized diameter hole in the plastic rings was counted under a direct vision microscope.

dermal analgesia = test: Pin-prick test of dermal analgesia after epidermal application of local anesthetic emulsions on the forearm; type: in vivo, volunteers; settings: for Pin-prick test, M1–10: mean of patients 1-10 (out of 10 pin-pricks); for Pin-prick test, M1–12: mean of patients 1-12; for dermal analgesia, effectiveness versus placebo emulsion: under occlusion as well as under a non-occlusive bandage
Description: as §1, §2, §3, §4, §5, §6
The pin-pricking procedure was carried out with disposable dental needles. In each of the test areas 10 pin-pricks were made. 10/10 represents full analgesia, 0/10 no analgesia.

[2] = Pain on intradermal injection of adrenaline solution in the test areas; type: in vivo; settings: 0.1 ml adrenaline 1:10 000 in the test area; all volunteers
Description: as §7
All volunteers reported pain at the intradermal injection of adrenaline solution at the placebo, the lidocaine and the prilocaine areas but not at the lidocaine-prilocaine areas.

[3] = cited from earlier work
[4] = Non-Occlusion, individual Patient No 1-10, soaked cellulose pads, 60 minutes
[5] = Non-Occlusion, individual Patient No 11, 12, emulsions applied directly to the skin, no cellulose pads
[6] = Occlusion, individual Patient No 1-10, soaked cellulose pads, 60 minutes, L—P 5%+5%, L 10%, P 10% emulsion
[7] = Occlusion, individual Patient No 11, 12, emulsions applied directly to the skin, no cellulose pads
[8] = Non-Occlusion, individual Patient No 1-10, pads, 60 minutes, 10/10 full analgesia, 0/10 no analgesia
[9] = Occlusion, individual Patient No 1-10, pads, 60 minutes, 10 pin-pricks, 10/10 full analgesia, 0/10 no analgesia
[10] = total concentration of 10%, aqueous emulsion

Row | SMILES | sweat response, induced by intracutaneous administration of adrenaline [1] | number of black-coloured sweat pores (OPT-test) [1, 4] | number of black-coloured sweat pores (OPT-test) [1, 5] | number of black-coloured sweat pores (OPT-test), M1-10 ([1]; Non-Occlusion) | number of black-coloured sweat pores (OPT-test), M1-12 ([1]; Non-Occlusion) | number of black-coloured sweat pores (OPT-test) [1, 6] | number of black-coloured sweat pores (OPT-test) [1, 7] | number of black-coloured sweat pores (OPT-test), M1-10 ([1]; Occlusion) | number of black-coloured sweat pores (OPT-test), M1-12 ([1]; Occlusion) | sweat response, effectiveness versus placebo ([1]; under non-occlusive bandage) | sweat response, effectiveness versus placebo ([1]; under occlusive bandage) | Pin-prick test (dermal analgesia; [8]) | Pin-prick test (dermal analgesia; [5]) | Pin-prick test, M1–10 (dermal analgesia; Non-Occlusion) | Pin-prick test, M1–12 (dermal analgesia; Non-Occlusion) | Pin-prick test (dermal analgesia; [9]) | Pin-prick test (dermal analgesia; [7]) | Pin-prick test, M1–10 (dermal analgesia; Occlusion) | Pin-prick test, M1–12 (dermal analgesia; Occlusion) | dermal analgesia, effectiveness versus placebo emulsion (dermal analgesia) | also measured
1 | CCN(CC)CC(=O)Nc1c(C)cccc1C [L, Diethylaminoacet-2',6'-xylidide] | partly blocked | 42 and 24 (4×) and 29 and 27 and 25 and 19 and 32 | 22 and 33 | 27.0 | 27.08 | 22 (2×) and 25 and 20 (2×) and 24 (2×) and 16 (2×) and 28 | 12 and 26 | 21.7 | 21.25 | more effective than placebo | significantly more effective than placebo | 0/10 (9×) and 1/10 | 0/10 | 0.10 | 0.08 | 0/10 (5×) and 2/10 (3×) and 5/10 and 3/10 | 8/10 and 6/10 | 1.40 | 2.33 | insignificantly more effective than the placebo emulsion | pain at the intradermal injection of adrenaline solution [2]: reported pain
2 | CCCNC(C)C(=O)Nc1ccccc1C (stereo not shown) [P, 2-propylamino-N-(2-tolyl)propionamide] | partly blocked | 46 and 18 (2×) and 34 and 24 and 26 (2×) and 25 and 21 and 40 | 14 and 20 | 27.8 | 26.0 | 24 (2×) and 30 and 17 and 52 and 18 and 22 and 15 and 28 | 24 and 16 | 25.6 | 24.54 | more effective than placebo | significantly more effective than placebo | 1/10 and 0/10 (8×) and 6/10 | 2/10 and 0/10 | 0.70 | 0.75 | 2/10 and 0/10 (6×) and 10/10 and 1/10 | 7/10 and 9/10 | 1.44 | 2.64 | insignificantly more effective than the placebo emulsion | sweat response inhibition, compared among the tested formulations [1, 10]: less effective; dermal analgesia (pin-pricking), compared among the tested formulations (dermal analgesia; [10]): less effective; pain at the intradermal injection of adrenaline solution [2]: reported pain
3 | CCN(CC)CCOC(=O)c1ccc(N)cc1 [procaine] | – | – | – | – | – | – | – | – | – | – | – | – | – | – | – | – | – | – | – | – | antihydrotic effect ([3]; administered electrophoretically): possesses an antihydrotic effect; antihydrotic effect ([3]; without electrophoresis, only topically): will not give any antihydrotic effect
